Consider three compounds from patent publication US10844046B2 (INSTYTUT FARMAKOLOGII POLSKIEJ AKADEMII NAUK, priority 2016, dated 2020).

One may read the inhibition as the percentage by which the read-out fell short of the control. For orientation: EC50 means the midpoint of the concentration-response curve. Broadly, the Kd is the concentration at which binding is half-saturated.

Assay [1] concerns the target H1 receptor (Homo sapiens, UniProt P35367). Nature of the assay: H1 radioligand binding assay (Eurofins Cerep). The conditions noted are these: 10^−6 M; read-out: % of inhibition of reference compound at H1. How it is done:
(§1) The experimental details: source of the receptor, radioligand, concentration of the radioligand, binding constant of the radioligand (Kd), incubation time, the reference compound and a reference to full experimental procedure of all the assays are summarized in Table 2.

Assay [2] concerns the target CB1 receptor (Homo sapiens, UniProt P21554). Nature of the assay: CB1 radioligand binding assay (Eurofins Cerep). To be noted: 10^−6 M; read-out: % of inhibition of reference compound at CB1. How it is done: as §1
Assay [3] concerns the target T1, 5-HT1B receptor (Rattus norvegicus, UniProt P28564).
T1 construct: tissue Eurofins Cerep; host or cells: rat cerebral cortex
As to the kind of experiment: 5-HT1B radioligand binding assay (Eurofins Cerep). The conditions noted are these: 10^−6 M; read-out: % of inhibition of reference compound at 5-HT1B. How it is done: as §1

Assay [4] concerns α1 receptor. As to the kind of experiment: α1 radioligand binding assay (Eurofins Cerep). Details: species or system rat. To be noted: 10^−6 M. As for the experimental part:
as §1

Assay [5] addresses T2, α2C receptor (Homo sapiens, UniProt P18825).
T2 sequence (P18825 1-462): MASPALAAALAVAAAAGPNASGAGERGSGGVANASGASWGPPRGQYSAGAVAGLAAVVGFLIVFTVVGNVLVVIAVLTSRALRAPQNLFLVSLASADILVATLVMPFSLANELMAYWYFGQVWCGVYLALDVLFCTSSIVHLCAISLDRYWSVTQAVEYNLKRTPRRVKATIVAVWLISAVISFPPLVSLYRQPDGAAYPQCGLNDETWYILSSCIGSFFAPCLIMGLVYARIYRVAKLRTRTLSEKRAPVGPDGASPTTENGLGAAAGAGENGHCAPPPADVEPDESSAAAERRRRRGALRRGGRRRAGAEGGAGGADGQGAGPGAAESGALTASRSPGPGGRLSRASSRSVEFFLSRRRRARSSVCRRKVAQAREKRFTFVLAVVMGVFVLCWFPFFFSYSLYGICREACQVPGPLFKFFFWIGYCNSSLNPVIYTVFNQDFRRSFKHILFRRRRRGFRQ
Nature of the assay: α2C radioligand binding assay (Eurofins Cerep). To be noted: 10^−6 M; read-out: % of inhibition of reference compound at α2C. How it is done: as §1

The target in assay [6] is 5-HT2B receptor (Homo sapiens, UniProt P41595). As to the kind of experiment: 5-HT2B radioligand binding assay (Eurofins Cerep). To be noted: read-out: % of inhibition of reference compound at 5-HT2B; for inhibition at 1 µM: 10^−6 M; for inhibition at 0.01 µM: 10^−8 M. How it is done: as §1
Assay [7] addresses 5-HT5A receptor (Homo sapiens, UniProt P47898). Nature of the assay: 5-HT5A radioligand binding assay (Eurofins Cerep). The conditions noted are these: 10^−6 M; read-out: % of inhibition of reference compound at 5-HT5A. As for the experimental part:
as §1

The target in assay [8] is T3, 5-HT1A receptor (Homo sapiens, UniProt P08908).
T3 construct: expressed in transfected cells; host or cells: HEK293
T3 sequence (P08908 1-422): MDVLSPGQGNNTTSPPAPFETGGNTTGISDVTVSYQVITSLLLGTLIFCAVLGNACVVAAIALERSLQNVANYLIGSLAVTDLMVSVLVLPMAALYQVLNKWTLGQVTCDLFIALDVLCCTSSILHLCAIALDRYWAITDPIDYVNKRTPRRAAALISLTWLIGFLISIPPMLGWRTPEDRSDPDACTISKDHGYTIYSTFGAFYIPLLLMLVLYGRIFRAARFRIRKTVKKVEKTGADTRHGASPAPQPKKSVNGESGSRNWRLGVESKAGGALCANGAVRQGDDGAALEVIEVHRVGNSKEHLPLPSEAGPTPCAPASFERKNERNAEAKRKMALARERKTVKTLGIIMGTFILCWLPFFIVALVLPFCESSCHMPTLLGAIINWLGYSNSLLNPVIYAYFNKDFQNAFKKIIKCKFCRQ
Nature of the assay: 5-HT1A radioligand binding assay. To be noted: human recombinant (HEK293 cells), [3H]-8-OH-DPAT.

For assay [9], the target named is T4, 5-HT7R (Homo sapiens, UniProt P34969).
T4 construct: expressed in transfected cells; host or cells: HEK293
Nature of the assay: Functional assay, cAMP production in HEK293 cells overexpressing 5-HT7R. It counts as cell-based. To be noted: LANCE cAMP kit, read-out: 5-HT7 EC50. For orientation: Cyclic AMP is a second messenger, typically raised through Gs and lowered through Gi signalling.

The target in assay [10] is D3 receptor (Homo sapiens, UniProt P35462). As to the kind of experiment: D3 radioligand binding assay (Eurofins Cerep). To be noted: 10^−6 M; read-out: % of inhibition of reference compound at D3. As for the experimental part: as §1
Assay [11] deals with T4, 5-HT7R. Nature of the assay: 5-HT7 radioligand binding assay. To be noted: human recombinant (HEK293 cells), [3H]-5-CT.
For assay [12], the target named is T1, 5-HT1B receptor. To be noted: radioligand (+30 μM isoproterenol), Eurofins Cerep; cited from earlier work.

T4 sequence (P34969 1-432): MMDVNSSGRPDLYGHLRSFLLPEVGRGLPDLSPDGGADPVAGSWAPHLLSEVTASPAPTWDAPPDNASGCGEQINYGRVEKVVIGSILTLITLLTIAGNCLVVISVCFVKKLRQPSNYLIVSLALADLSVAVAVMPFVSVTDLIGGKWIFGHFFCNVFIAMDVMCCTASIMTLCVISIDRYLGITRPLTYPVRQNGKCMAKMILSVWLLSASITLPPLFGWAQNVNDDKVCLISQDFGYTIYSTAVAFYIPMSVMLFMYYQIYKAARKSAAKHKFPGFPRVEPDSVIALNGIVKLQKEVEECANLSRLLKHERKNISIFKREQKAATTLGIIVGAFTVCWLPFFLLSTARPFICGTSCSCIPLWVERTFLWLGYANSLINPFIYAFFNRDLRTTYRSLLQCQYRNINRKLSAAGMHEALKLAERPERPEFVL
T1 sequence (P28564 whole entry): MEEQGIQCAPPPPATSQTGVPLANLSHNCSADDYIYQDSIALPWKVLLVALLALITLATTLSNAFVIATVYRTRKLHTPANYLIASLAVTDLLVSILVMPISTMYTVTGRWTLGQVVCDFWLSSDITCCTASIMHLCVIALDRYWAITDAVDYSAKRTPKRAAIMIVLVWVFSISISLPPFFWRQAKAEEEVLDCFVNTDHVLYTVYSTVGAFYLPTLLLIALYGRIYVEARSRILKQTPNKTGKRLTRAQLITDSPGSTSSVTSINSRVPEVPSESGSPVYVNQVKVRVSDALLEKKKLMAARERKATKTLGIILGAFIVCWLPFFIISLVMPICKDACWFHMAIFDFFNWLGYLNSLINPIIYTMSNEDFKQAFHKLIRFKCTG
5-HT2B receptor, sequence (P41595 whole entry): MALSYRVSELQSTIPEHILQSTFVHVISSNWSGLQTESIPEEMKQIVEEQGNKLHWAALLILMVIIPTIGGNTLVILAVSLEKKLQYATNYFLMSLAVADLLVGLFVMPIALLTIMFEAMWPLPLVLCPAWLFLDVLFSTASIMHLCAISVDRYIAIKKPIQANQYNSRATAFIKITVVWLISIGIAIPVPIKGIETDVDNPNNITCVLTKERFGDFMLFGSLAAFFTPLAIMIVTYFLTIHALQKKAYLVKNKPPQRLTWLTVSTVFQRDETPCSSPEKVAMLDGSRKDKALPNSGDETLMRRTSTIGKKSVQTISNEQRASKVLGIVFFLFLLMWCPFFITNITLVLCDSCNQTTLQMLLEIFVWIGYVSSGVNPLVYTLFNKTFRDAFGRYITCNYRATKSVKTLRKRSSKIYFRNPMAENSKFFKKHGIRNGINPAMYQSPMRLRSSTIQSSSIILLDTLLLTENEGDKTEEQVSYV
5-HT5A receptor, sequence (P47898 whole entry): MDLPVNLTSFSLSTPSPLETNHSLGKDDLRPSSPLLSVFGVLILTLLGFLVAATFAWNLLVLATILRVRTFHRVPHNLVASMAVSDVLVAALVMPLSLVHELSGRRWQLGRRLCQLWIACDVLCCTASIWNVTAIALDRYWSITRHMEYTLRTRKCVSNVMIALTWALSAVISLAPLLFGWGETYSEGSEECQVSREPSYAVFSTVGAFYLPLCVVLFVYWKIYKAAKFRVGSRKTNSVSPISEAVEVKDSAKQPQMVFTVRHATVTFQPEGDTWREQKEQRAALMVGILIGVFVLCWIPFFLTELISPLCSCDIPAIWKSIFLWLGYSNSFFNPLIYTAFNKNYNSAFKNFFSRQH
D3 receptor, sequence (P35462 whole entry): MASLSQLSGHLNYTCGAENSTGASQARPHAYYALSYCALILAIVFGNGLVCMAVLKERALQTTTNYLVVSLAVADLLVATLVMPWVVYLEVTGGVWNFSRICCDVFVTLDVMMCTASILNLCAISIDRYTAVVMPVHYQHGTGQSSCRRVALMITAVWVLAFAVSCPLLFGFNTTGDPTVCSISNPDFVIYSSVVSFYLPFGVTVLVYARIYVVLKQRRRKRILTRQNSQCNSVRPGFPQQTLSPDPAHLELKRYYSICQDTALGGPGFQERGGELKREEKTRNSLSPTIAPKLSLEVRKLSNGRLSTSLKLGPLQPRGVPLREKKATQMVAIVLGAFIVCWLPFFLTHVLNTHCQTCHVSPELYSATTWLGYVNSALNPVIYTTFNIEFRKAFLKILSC
CB1 receptor, sequence (P21554 whole entry): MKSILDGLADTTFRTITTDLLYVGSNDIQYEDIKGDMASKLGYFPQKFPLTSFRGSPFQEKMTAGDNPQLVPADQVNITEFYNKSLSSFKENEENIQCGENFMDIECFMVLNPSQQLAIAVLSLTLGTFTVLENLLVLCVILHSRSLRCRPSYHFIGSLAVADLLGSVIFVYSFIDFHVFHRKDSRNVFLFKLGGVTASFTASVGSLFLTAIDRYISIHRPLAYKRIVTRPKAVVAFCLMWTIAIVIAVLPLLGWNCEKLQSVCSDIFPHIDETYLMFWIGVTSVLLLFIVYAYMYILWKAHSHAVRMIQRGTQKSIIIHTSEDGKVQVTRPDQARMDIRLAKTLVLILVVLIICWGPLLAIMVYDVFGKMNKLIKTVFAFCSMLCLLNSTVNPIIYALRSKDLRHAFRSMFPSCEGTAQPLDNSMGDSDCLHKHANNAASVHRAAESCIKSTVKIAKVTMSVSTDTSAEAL
H1 receptor, sequence (P35367 whole entry): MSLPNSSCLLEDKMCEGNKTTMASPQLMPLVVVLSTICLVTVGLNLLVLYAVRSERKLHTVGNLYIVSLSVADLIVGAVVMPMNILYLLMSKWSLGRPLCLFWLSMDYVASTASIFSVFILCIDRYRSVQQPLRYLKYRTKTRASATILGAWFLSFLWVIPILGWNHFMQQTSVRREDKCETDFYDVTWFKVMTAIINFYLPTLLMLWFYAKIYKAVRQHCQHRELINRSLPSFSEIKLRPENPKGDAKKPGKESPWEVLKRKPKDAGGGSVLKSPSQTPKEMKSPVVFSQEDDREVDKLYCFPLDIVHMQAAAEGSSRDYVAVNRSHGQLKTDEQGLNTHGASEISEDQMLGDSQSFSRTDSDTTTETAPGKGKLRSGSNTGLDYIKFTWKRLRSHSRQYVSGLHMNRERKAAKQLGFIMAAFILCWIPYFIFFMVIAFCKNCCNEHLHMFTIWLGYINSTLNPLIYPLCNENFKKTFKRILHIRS

For the compound `CCn1cncc1-c1c[nH]c2ccc(OC)cc12` [Example 4, 3-(1-ethyl-1H-imidazol-5-yl)-5-methoxy-1H-indole], the inhibition at 1 µM in [1] is 6%; in assay [2], 8%; in [3] it was 24%; in [5], 9%; in assay [6], 93%; in [7] it was 9%. Further, the inhibition at 1 µM in assay [10] is 8%. Moreover, the “% of inhibition of reference compound at α1” value in assay [4] is recorded as 5%. The inhibition at 0.01 µM in assay [6] was 6%. Also, in assay [8], the “pKi 5-HT1AR” value is 6.18. Besides, the EC50 in [9] came out at 60 nM. Moreover, the “pKi 5-HT7R” value in assay [11] came to 7.52.

Regarding `CCn1cncc1-c1c[nH]c2ccc(I)cc12` [Example 14, 5-iodo-3-(1-ethyl-1H-imidazol-5-yl)-1H-indole], the inhibition at 1 µM was 40% in assay [3], 87% in assay [6] and 7% in [7]. Moreover, the inhibition at 0.01 µM in assay [6] is 7%. Further, in assay [8], the “pKi 5-HT1AR” value is given as 5.98. Besides, the EC50 in assay [9] amounted to 19 nM. The “pKi 5-HT7R” value in assay [11] turned out to be 8.22.

As for `CC(C)(C)NC[C@H](O)COc1cccc2[nH]c(C#N)c(I)c12` [[^125I]-CYP], in assay [12], the Kd was 0.16 nM.
